According to PubChem BioAssay (NCI):
Several values for one entry are separate records, joined by “and”; a condition that tells them apart may be missing. Equal entries are not always repeated.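 Assay format: 96-well plates, 48-hour exposure. The concentration for full growth arrest is given as TGI.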

What was measured:
Assay in all cases: inhibition of tumour cell growth, NCI panel, 48 h
DU-145 prostate = system: DU-145 prostate
HCC-2998 colon = system: HCC-2998 colon
HCT-116 colon = system: HCT-116 colon
HL-60(TB) leukemia = system: HL-60(TB) leukemia
MALME-3M melanoma = system: MALME-3M melanoma
MDA-MB-231 breast = system: MDA-MB-231 breast
MOLT-4 leukemia = system: MOLT-4 leukemia
NCI-H226 lung = system: NCI-H226 lung
NCI/ADR-RES ovarian = system: NCI/ADR-RES ovarian
OVCAR-4 ovarian = system: OVCAR-4 ovarian
OVCAR-5 ovarian = system: OVCAR-5 ovarian
OVCAR-8 ovarian = system: OVCAR-8 ovarian
PC-3 prostate = system: PC-3 prostate
SK-OV-3 ovarian = system: SK-OV-3 ovarian
SR leukemia = system: SR leukemia
T-47D breast = system: T-47D breast
TK-10 renal = system: TK-10 renal
U251 CNS = system: U251 CNS
UACC-62 melanoma = system: UACC-62 melanoma
RPMI-8226 leukemia = system: RPMI-8226 leukemia

Row | Structure (SMILES) | TGI (DU-145 prostate) [µM] | TGI (HCC-2998 colon) | TGI (HCT-116 colon) | TGI (HL-60(TB) leukemia) [µM] | TGI (MALME-3M melanoma) | TGI (MDA-MB-231 breast) | TGI (MOLT-4 leukemia) [µM] | TGI (NCI-H226 lung) | TGI (NCI/ADR-RES ovarian) [µM] | TGI (OVCAR-4 ovarian) | TGI (OVCAR-5 ovarian) [µM] | TGI (OVCAR-8 ovarian) | TGI (PC-3 prostate) [µM] | TGI (SK-OV-3 ovarian) [µM] | TGI (SR leukemia) | TGI (T-47D breast) | TGI (TK-10 renal) [µM] | TGI (U251 CNS) | TGI (UACC-62 melanoma) | TGI (RPMI-8226 leukemia)
1 | COc1ccc(-c2c(=O)[nH]n3c(=S)nc(-c4ccccc4)[nH]c23)cc1OC | 52.3 | 36.1 µM | 31.4 µM | 39.3 | 40.7 µM | 97.8 µM | 33.4 | 40.7 µM | 55.7 | 61.1 µM | 47.3 | 50.4 µM | 90.7 | 55.9 | 24.2 µM | 42.6 µM | 53.1 | 58.5 µM | 39.8 µM | 
2 | COC(=O)c1sc2ncc3c(c2c1N)CCCCCC3 | > 100 | > 100 µM | > 100 µM |  | > 100 µM | > 100 µM | > 100 | > 100 µM | > 100 | > 100 µM | > 100 | > 100 µM | > 100 | > 100 | > 100 µM | > 100 µM | > 100 | > 100 µM | > 100 µM | > 100 µM
3 | CC(=O)OCC(OC(C)=O)C(OC(C)=O)C(OC(C)=O)C(C=NN(C(C)=O)S(=O)(=O)c1ccc(/C=C2\NC(=O)N(C)C2=O)cc1)OC(C)=O (stereo not given) | > 100 | 32 µM and > 100 µM | 47.2 µM and 37.4 µM |  | 37.5 µM and 52.1 µM | > 100 µM and 96.4 µM | 45.6 | 96.5 µM and > 100 µM | > 100 | 95.7 µM and > 100 µM | > 100 | > 100 µM and 86.7 µM | > 100 | > 100 | 44.1 µM and 61 µM | 76.1 µM and 91.3 µM | 40.4 | 66 µM and > 100 µM | 23.3 µM and 29.5 µM | 49.8 µM and 65.8 µM
4 | O/C(=C\c1nc2ccccc2nc1/C=C(\O)c1ccc(Cl)cc1)c1ccccc1 | > 100 | > 100 µM | > 100 µM |  | > 100 µM | > 100 µM | 40.9 | > 100 µM | > 100 | > 100 µM | > 100 | > 100 µM | > 100 | > 100 | > 100 µM | > 100 µM | > 100 | > 100 µM | > 100 µM | > 100 µM
5 | COc1ccc2nc3ccc(OC)cc3c(SCc3ccc([N+](=O)[O-])cc3)c2c1 | > 100 | > 100 µM | > 100 µM | > 100 | > 100 µM | > 100 µM | > 100 | > 100 µM | > 100 | 69.6 µM | > 100 | > 100 µM | > 100 | > 100 | > 100 µM | > 100 µM | > 100 |  | > 100 µM | 
6 | CCN1CCN(c2ccc(Nc3ccnc4ccc5c(nnn5C)c34)cc2)CC1 | 18.3 | 6.94 µM | 14.3 µM | 25.9 | 23.6 µM | 27.2 µM | 35.1 |  | 36.7 | 48.2 µM | 24.2 | 40.8 µM | 17.7 | 32.2 | 15.8 µM | 38.3 µM | 45.6 | 19 µM | 27.1 µM | 
7 | FC(F)(Sc1ccccn1)c1nc2ccccc2o1 | > 100 | > 100 µM | > 100 µM |  | > 100 µM | > 100 µM | > 100 | > 100 µM | > 100 | > 100 µM | > 100 | > 100 µM | > 100 | > 100 | > 100 µM | > 100 µM | > 100 | > 100 µM | > 100 µM | > 100 µM
8 | O=C1c2ccccc2NC(=O)C2C1C(c1ccccc1)CC2(O)c1ccccc1 (stereo not given) | > 100 | > 100 µM | 37.8 µM | > 100 | > 100 µM | > 100 µM | 71.5 |  | > 100 | > 100 µM | > 100 | > 100 µM | 74.3 | > 100 | > 100 µM | > 100 µM | 99.7 |  | > 100 µM | 
9 | Cc1ccc(C)n1-n1c(Cc2ccccc2)n[nH]c1=O | > 100 | > 100 µM | > 100 µM |  | > 100 µM | > 100 µM | > 100 | > 100 µM | > 100 | > 100 µM | > 100 | > 100 µM | > 100 | > 100 | > 100 µM | > 100 µM | > 100 | > 100 µM | > 100 µM | > 100 µM
10 | CCOC(=O)C(/C=N\C(=S)Nc1ccc(Cl)c(Cl)c1)=C(/O)c1ccccc1 | > 100 | 60.4 µM | > 100 µM | > 100 | > 100 µM | 90.9 µM | > 100 | > 100 µM | > 100 | > 100 µM | > 100 | > 100 µM | > 100 | > 100 | > 100 µM | > 100 µM |  | > 100 µM | > 100 µM | 
